{"source": "patent US12564595B2", "about": "“Prophylactic and therapeutic pharmaceutical agent for HIV infectious diseases characterized by comprising combination of integrase inhibitor and anti-HIV agent” (Shionogi & Co., Ltd., priority 2019, dated 2026)", "key": {"[1]": {"tested_on": "HIV mutant strain 3 (E92Q/E138K/G140S/Q148H)", "experiment": "Test Example 2: resistance evaluation test (HeLa-CD4 reporter), mutant strain 3", "assay_type": "cell-based", "settings": "FC=EC50 of mutant strain/EC50 of wild strain; HeLa-CD4 cells", "protocol": "(§1) A serial dilution series of test samples in 96-well microplates was prepared (50 […]).\n(§2) 2.5×10^4/mL of HeLa-CD4 cell suspension was dispensed into each of the microplates containing test sample, in the amount of 100 μL/well, and HIV virus liquid (wild strain and mutant strain) was then dispensed in an amount of 50 μL/well. Mixing was performed using a plate mixer and culturing was performed for three days in a CO2 incubator. After removing the cultured supernatant of each well by suction, 100 μL of the cell solution buffer in the reporter measurement kit was dispensed thereto, and freezing was conducted in a refrigerator (−80° C.). The plates frozen in the refrigerator were defrosted at room temperature, then mixed using a plate mixer and centrifuged for 5 min at 1,200 rpm. The supernatant of each well was divided to 96-well microplates (BLACK) in the amount of 20 μL in each case. The chemiluminescence reagent in the reporter assay kit was dispensed in the amount of 100 μL in each case, and, after reacting for about 1 h at room temperature, the amount of luminescence was measured using a MicroBeta TRILUX.\n(§3) The degree of resistance (fold change (FC)) of each mutant strain was also calculated using the following formula. FC=EC50 of mutant strain/EC50 of wild strain (Results)"}, "[2]": {"tested_on": "HIV mutant strain 1 (E138K/G140S/Q148H/N155H)", "experiment": "Test Example 2: resistance evaluation test (HeLa-CD4 reporter), mutant strain 1", "assay_type": "cell-based", "settings": "FC=EC50 of mutant strain/EC50 of wild strain; HeLa-CD4 cells", "in_short": "(§4)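 HeLa-CD4 reporter cells were infected with wild-type or mutant HIV in the presence of serially diluted compound and cultured 3 days. Cell lysates were read by chemiluminescent reporter assay after about 1 h at room temperature. Fold change was calculated as mutant EC50 divided by wild-type EC50.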"}, "[3]": {"tested_on": "HIV mutant strain 2 (E92Q/E138T/G140S/Q148H)", "experiment": "Test Example 2: resistance evaluation test (HeLa-CD4 reporter), mutant strain 2", "assay_type": "cell-based", "settings": "FC=EC50 of mutant strain/EC50 of wild strain; HeLa-CD4 cells", "in_short": "as §4"}, "[4]": {"tested_on": "HIV mutant strain 4 (T97A/E138T/G140S/Q148H)", "experiment": "Test Example 2: resistance evaluation test (HeLa-CD4 reporter), mutant strain 4", "assay_type": "cell-based", "settings": "FC=EC50 of mutant strain/EC50 of wild strain; HeLa-CD4 cells", "protocol": "as §1, §2, §3"}, "[5]": {"experiment": "Test Example 8: metabolic stability test", "assay_type": "in vitro ADME, human", "settings": "pooled human liver microsomes, 30 min at 37° C., NADPH, compound concentration 0.5 μmol/L", "in_short": "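Pooled human liver microsomes (0.5 mg protein/mL, Tris-HCl pH 7.4) incubated with compound and 1 mmol/L NADPH for 0 or 30 min at 37° C. After methanol/acetonitrile quench, remaining parent was quantified by LC/MS/MS or SPE/MS and expressed as % of the 0 min amount.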"}, "[6]": {"target": "T1, voltage-gated sodium channel (Nav 1.5 channel) (Homo sapiens, UniProt Q14524)", "T1 construct": "expressed in transfected cells; host or cells: HEK cells", "T1 sequence (Q14524 whole entry)": "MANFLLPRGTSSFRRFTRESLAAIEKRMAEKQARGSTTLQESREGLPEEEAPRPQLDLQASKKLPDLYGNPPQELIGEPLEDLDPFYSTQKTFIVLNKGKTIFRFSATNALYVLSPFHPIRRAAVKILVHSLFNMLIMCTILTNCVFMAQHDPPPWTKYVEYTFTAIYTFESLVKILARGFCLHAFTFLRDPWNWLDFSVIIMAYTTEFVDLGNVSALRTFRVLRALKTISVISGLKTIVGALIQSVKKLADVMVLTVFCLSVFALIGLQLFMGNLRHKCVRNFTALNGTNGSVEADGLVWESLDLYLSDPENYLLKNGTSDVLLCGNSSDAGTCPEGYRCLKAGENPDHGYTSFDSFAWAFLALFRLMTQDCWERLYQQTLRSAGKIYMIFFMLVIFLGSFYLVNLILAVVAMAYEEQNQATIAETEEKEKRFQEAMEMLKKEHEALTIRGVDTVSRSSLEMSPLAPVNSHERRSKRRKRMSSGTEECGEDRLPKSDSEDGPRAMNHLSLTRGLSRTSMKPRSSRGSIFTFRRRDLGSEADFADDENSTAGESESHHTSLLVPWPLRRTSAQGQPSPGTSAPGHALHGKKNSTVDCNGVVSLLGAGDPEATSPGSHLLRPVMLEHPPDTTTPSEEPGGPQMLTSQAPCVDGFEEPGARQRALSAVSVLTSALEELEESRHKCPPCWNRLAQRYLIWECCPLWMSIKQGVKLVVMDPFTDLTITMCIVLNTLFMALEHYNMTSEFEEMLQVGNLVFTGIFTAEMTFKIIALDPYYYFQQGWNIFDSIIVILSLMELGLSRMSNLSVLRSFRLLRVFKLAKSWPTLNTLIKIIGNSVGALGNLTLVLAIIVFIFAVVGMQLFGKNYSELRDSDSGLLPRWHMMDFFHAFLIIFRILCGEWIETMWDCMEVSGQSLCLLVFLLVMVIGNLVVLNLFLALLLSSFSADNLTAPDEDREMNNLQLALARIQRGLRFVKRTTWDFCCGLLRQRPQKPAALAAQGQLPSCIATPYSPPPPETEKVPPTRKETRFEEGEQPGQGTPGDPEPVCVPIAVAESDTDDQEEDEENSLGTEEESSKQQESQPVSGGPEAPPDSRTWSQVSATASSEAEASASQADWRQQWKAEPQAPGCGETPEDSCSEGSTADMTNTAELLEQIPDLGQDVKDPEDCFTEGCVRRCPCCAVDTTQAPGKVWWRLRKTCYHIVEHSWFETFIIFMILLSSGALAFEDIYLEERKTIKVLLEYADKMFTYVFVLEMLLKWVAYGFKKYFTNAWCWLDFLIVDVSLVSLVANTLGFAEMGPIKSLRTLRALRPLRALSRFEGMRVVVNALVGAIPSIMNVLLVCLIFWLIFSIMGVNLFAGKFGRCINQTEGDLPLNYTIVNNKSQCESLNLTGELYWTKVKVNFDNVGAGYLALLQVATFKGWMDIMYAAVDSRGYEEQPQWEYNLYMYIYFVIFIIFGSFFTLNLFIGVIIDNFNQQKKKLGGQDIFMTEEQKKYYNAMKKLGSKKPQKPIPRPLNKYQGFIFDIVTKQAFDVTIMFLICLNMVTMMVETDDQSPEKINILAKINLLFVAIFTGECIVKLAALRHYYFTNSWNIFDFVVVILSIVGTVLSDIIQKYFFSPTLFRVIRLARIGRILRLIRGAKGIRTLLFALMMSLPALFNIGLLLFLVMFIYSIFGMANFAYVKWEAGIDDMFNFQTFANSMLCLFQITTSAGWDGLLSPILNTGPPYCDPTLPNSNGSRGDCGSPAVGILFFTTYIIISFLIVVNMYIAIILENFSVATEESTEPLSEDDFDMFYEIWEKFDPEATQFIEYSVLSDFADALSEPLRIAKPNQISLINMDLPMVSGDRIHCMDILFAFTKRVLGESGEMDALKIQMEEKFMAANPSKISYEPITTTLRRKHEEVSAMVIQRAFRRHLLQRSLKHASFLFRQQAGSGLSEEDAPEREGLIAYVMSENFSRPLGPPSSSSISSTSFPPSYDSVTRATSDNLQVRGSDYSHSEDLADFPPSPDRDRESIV", "experiment": "Test Example 14: Nav test (patch clamp, HEK cells)", "assay_type": "cell-based", "settings": "HEK cells expressing Nav 1.5 channel, whole cell patch clamp", "protocol": "Using a fully automatic patch clamp system (QPatch: Sophion Bioscience A/S), by the whole cell patch clamp method, the cells were maintained at a membrane potential of −100 mV and the induced INa when a −10 mV depolarization stimulus was applied for 20 msec was recorded. […] From the INa obtained, using analysis software (QPatch: Sophion Bioscience A/S), the absolute value of the maximum peak current was measured, with reference to the current value at the maintained membrane potential."}, "HIV [7]": {"tested_on": "HIV", "experiment": "Test Example 16: anti-HIV activity in the presence of human serum protein (MT-4 cells)", "assay_type": "cell-based", "settings": "100% extrapolation value, PS=4×(EC50 with 25% human serum protein/EC50 with no human serum protein)", "protocol": "A stage dilution series of the test samples was created on a 96-well microplate (50 μL/well).\nAliquots of human serum protein solution (human serum protein concentration 50%) were dispensed in the amount of 100 μL/well to a 96-well microplate containing the test sample. This was then left to stand for 1 h at room temperature. Culture medium in the amount of 100 μL/well in each case was dispensed to a serum-free plate for control purposes. Aliquots of MT-4 cells in the amount of 3.0×10^5/well and HIV virus liquid in the amount of 3 μL/well were mixed for the necessary number of wells and reacted for 1 h at 37° C. After the reaction, the cell suspension was centrifuged and the supernatant discarded; aliquots of infected cells were distributed to culture medium in the amount of 50 μL/well and were dispensed in the amount of 50 μL/well in each case into the wells of a 96-well microplate containing test samples and human serum protein (human serum protein concentration: 25%). Mixing was performed using a plate mixer and culturing was performed for four days with a CO2 incubator. […] MTT(3-(4, 5-dimethylthiazol-2-yl)-2, 5-diphenyltetrazolium bromide) liquid in the amount of 30 μL was dispensed to each of the wells. The reaction was performed for 1 h in a CO2 incubator. 150 μL supernatant was removed to avoid aspirating cells from the wells. 150 μL of cell solution was added and thorough mixing was performed, using a plate mixer, until all the cells were dissolved. The optical absorbance on the mixed plate was measured at two wavelengths, namely, 560 nm/690 nm, using a microplate reader.\nNext, the potency shift (PS) was calculated, using the following formula. The PS is the value of the human serum protein concentration, extrapolated to 100%."}, "HIV [8]": {"tested_on": "HIV", "experiment": "microbe, parasite or virus in culture", "assay_type": "cell-based", "settings": "Human immunodeficiency virus 1, MT4, 96 h, read-out: EC50 (50% HIV inhibition concentration), MT-4 cells, HIV, cultured four days, MTT; compounds of formula (I) of (A)", "in_short": "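MT-4 cells infected with HIV in the presence of serially diluted test samples and cultured four days at CO2 incubator conditions. Cell viability measured by MTT reduction (1 h), solubilised formazan read at 560/690 nm.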"}, "HIV [9]": {"tested_on": "HIV", "experiment": "Test Example 3: test for confirmation of combined use effect", "assay_type": "cell-based", "design": "key to D value (dosewise additivity value): <-0.1 synergy, -0.1 to 0.1 additive, >0.1 antagonism"}, "[10]": {"settings": "combination with compound (B) Compound C (CAI)"}, "[11]": {"settings": "combination with compound (B) GS-6207 (CAI)"}, "[12]": {"settings": "combination with compound (B) GSK2838232 (maturation inhibitor)"}, "[13]": {"settings": "combination with compound (B) I′-189 (INLAI)"}, "[14]": {"settings": "combination with compound (B) Ramipzin (3TC) (polymerase inhibitor)"}, "[15]": {"settings": "combination with compound (B) VM-1500 (polymerase inhibitor)"}}}
{"smiles": "CN1C(=O)c2c(O)c(=O)c(C(=O)NCc3ccc(F)cc3F)cn2N2CCCC[C@@H]12", "note": "[Compound I-032]", "values": [{"measurement": "FC in respect of mutant strain 3 (E92Q/E138K/G140S/Q148H)", "setting": "[1]", "value": "Compound I-032: 7.7"}, {"measurement": "FC in respect of mutant strain 1 (E138K/G140S/Q148H/N155H)", "setting": "[2]", "value": 51}, {"measurement": "FC in respect of mutant strain 2 (E92Q/E138T/G140S/Q148H)", "setting": "[3]", "value": 18}, {"measurement": "FC in respect of mutant strain 4 (T97A/E138T/G140S/Q148H)", "setting": "[4]", "value": "compound I-032: 10"}, {"measurement": "Remaining percentage", "setting": "[5]", "value": 103, "unit": "%"}, {"measurement": "ratio of maximum peak current (INa) on application of compound to that on application of medium", "setting": "[6]", "value": 92.1, "unit": "%"}]}
{"smiles": "CCN1C(=O)c2c(O)c(=O)c(-c3nnc(Cc4ccc(F)cc4F)s3)cn2N2C[C@@H](C)C[C@@H]12", "note": "[II-109]", "values": [{"measurement": "potency shift (PS) in the presence of human serum protein", "setting": "HIV [7]", "value": 56}, {"measurement": "EC50", "setting": "HIV [8]", "value": 1.2, "unit": "nM"}, {"measurement": "FC in respect of mutant strain 1 (E138K/G140S/Q148H/N155H)", "setting": "[2]", "value": 4.1}, {"measurement": "FC in respect of mutant strain 2 (E92Q/E138T/G140S/Q148H)", "setting": "[3]", "value": 2.5}, {"measurement": "D value (dosewise additivity value)", "setting": "HIV [9]; [10]", "value": 0.071}, {"measurement": "effect of combined use", "setting": "HIV [9]; [10]", "value": "Additive (−0.1 to −0.1: additive synergetic effect)"}, {"measurement": "D value (dosewise additivity value)", "setting": "HIV [9]; combination with compound (B) Darunavin (PI)", "value": "−0.143"}, {"measurement": "effect of combined use", "setting": "HIV [9]; combination with compound (B) Darunavir (PI)", "value": "Weak synergy (−0.2 to −0.1: weak synergetic effect)"}, {"measurement": "D value (dosewise additivity value)", "setting": "HIV [9]; [11]", "value": "−0.059"}, {"measurement": "effect of combined use", "setting": "HIV [9]; [11]", "value": "Additive (−0.1 to −0.1: additive synergetic effect)"}, {"measurement": "D value (dosewise additivity value)", "setting": "HIV [9]; [12]", "value": "−0.054"}, {"measurement": "effect of combined use", "setting": "HIV [9]; [12]", "value": "Additive (−0.1 to −0.1: additive synergetic effect)"}, {"measurement": "D value (dosewise additivity value)", "setting": "HIV [9]; [13]", "value": 0.056}, {"measurement": "effect of combined use", "setting": "HIV [9]; [13]", "value": "Additive (−0.1 to −0.1: additive synergetic effect)"}, {"measurement": "effect of combined use", "setting": "HIV [9]; combination with compound (B) Lilpiperine (polymerase inhibitor)", "value": "Additive (−0.1 to −0.1: additive synergetic effect)"}, {"measurement": "D value (dosewise additivity value)", "setting": "HIV [9]; [14]", "value": "−0.145"}, {"measurement": "effect of combined use", "setting": "HIV [9]; [14]", "value": "Weak synergy (−0.2 to −0.1: weak synergetic effect)"}, {"measurement": "D value (dosewise additivity value)", "setting": "HIV [9]; combination with compound (B) Rilpivirine (polymerase inhibitor)", "value": "−0.096"}, {"measurement": "D value (dosewise additivity value)", "setting": "HIV [9]; [15]", "value": "−0.094"}, {"measurement": "effect of combined use", "setting": "HIV [9]; [15]", "value": "Additive (−0.1 to −0.1: additive synergetic effect)"}, {"measurement": "Remaining percentage", "setting": "[5]", "value": 98.3, "unit": "%"}, {"measurement": "ratio of maximum peak current (INa) on application of compound to that on application of medium", "setting": "[6]", "value": 93.3, "unit": "%"}]}
